Assay results as given in patent US11993573B2, “Chromane-substituted, tetrahydroquinoline-substituted and thiochromane-substituted heteroarotinoids as anti-cancer agents” (THE BOARD OF REGENTS FOR OKLAHOMA STATE UNIVERSITY, priority 2018, dated 2024).
Read-outs that look alike come from different tables or passages of the source.

Test system: human ovarian cancer cell line A2780
Assay: Growth inhibition assay (CellTiter 96 Non-Rad Cell Proliferation Assay)
Assay type: cell-based
Conditions: for efficacy compared with SHetA2 / IC50 compared with SHetA2: comparison in words; for IC50 compared with SHetA2: 'exceeded' = lower IC50 in Table 1
Procedure: To illustrate the general activity of the compounds inhibiting growth of human […] ovarian cancer cells, selected compounds were synthesized and evaluated. The compounds were dissolved in DMSO at a concentration of 0.01 M. The human ovarian cancer cell line A2780 was plated in 96-well tissue culture dishes at a concentration of 3000 cells per well in RPMI medium supplemented with 10% fetal bovine serum and a mixture of antibiotics and antimycotics. The next day, the cultures were treated in triplicate with compound concentrations ranging from 2 μM to 8 μM increments. For compound 12, additional experiments were performed with concentrations of 10 μM and a series of two-fold dilutions to 156 nM. Control cultures were treated with DMSO solvent only. After 72 h of incubation, the […] 96® Non-Rad Cell Proliferation Assay (Promega) was used to quantify the remaining metabolically living cells. After subtracting blank values, the optical density (OD) readouts of the assay for the treated cultures were normalized with the average OD of the control cultures. For each compound, the experiment was repeated at least once, resulting in a minimum of 6 dose-response curves. For SHetA2, 24 response curves were available for statistical fitting parameters. A custom program was written in GNU Octave, a free software compatible with Matlab, to fit the dose-response curves with a four-parameter sigmoid function, extracting the IC50 and efficacy (the maximal % growth inhibition) parameters.
To illustrate the useful biological activity of these chroman-substituted and tetrahydroquinoline-substituted heteroarotinoids, the compounds were screened against human […] ovarian cancer cells.

[1] = Homo sapiens, A2780, 72 h, Table 1, chroman-containing series
[2] = Homo sapiens, A2780, 72 h, Table 1, maximal % growth inhibition, A2780, 72 h, read-out: Efficacy
[3] = Homo sapiens, A2780, 72 h, Table 2, tetrahydroquinoline-containing members
[4] = Homo sapiens, A2780, 72 h, Table 2, maximal % growth inhibition, A2780, 72 h, read-out: Efficacy
[5] = Table 2, tetrahydroquinoline-containing members, A2780, 72 h
[6] = Table 2, maximal % growth inhibition, A2780, 72 h
[7] = Homo sapiens, A2780, Table 3, 14 series (thiochroman), A2780
[8] = Homo sapiens, A2780, Table 3, 14 series, A2780, read-out: % Efficacy

SMILES	IC50 [1]	Emax [2]	efficacy compared with SHetA2 (A2780)	IC50 [7]	Emax [8]	other results
CC1(C)CC(C)(C)c2cc(NC(=S)Nc3ccc([N+](=O)[O-])cc3)ccc2O1 [Compound 2a, 1-(4-Nitrophenyl)-3-(2,2,4,4-tetramethylchroman-6-yl)thiourea]	6.97 µM	87%	exceeded the efficacy of SHetA2	–	–	–
CCOC(=O)c1ccc(NC(=S)Nc2ccc3c(c2)C(C)(C)CC(C)(C)O3)cc1 [Compound 2b, Ethyl 4-(3-(2,2,4,4-Tetramethylchroman-6-yl)thioureido)benzoate]	4.3 µM	26%	–	–	–	–
CC1(C)CCOc2ccc(NC(=S)Nc3ccc([N+](=O)[O-])cc3)cc21 [Compound 4a, 1-(4-Nitrophenyl)-3-(4,4-dimethylchroman-6-yl)thiourea]	6.4 µM	19%	–	–	–	–
CC1(C)CCOc2ccc(NC(=O)Nc3ccc([N+](=O)[O-])cc3)cc21 [Compound 5a, 1-(4-Nitrophenyl)-3-(4,4-dimethylchroman-6-yl)urea]	6.7 µM	74%	–	–	–	–
CC1(C)CCOc2ccc(NC(=O)Nc3ccc(C(F)(F)F)cc3)cc21 [Compound 5b]	–	–	–	–	–	IC50 (Table 1, chroman-containing series, A2780, 72 h): 5 µM; Efficacy (Table 1, maximal % growth inhibition, A2780, 72 h): 47%
CCC1(CC)CC(C)(C)c2cc(NC(=S)Nc3ccc([N+](=O)[O-])cc3)ccc2O1 [Compound 6a, 1-(2,2-Diethyl-4,4-dimethylchroman-6-yl)-3-(4-nitrophenyl)thiourea]	2.9 µM	93.9%	exceeded the efficacy of SHetA2	–	–	IC50 compared with SHetA2 (A2780): exceeded
CCC1(CC)CC(C)(C)c2cc(NC(=O)Nc3ccc([N+](=O)[O-])cc3)ccc2O1 [Compound 6b, 1-(2,2-Diethyl-4,4-dimethylchroman-6-yl)-3-(4-nitrophenyl)urea]	2.17 µM	93.3%	exceeded the efficacy of SHetA2	–	–	IC50 compared with SHetA2 (A2780): exceeded
CCC1(CC)CC(C)(C)Oc2ccc(NC(=S)Nc3ccc([N+](=O)[O-])cc3)cc21 [Compound 7a, 1-(4,4-Diethyl-2,2-dimethylchroman-6-yl)-3-(4-nitrophenyl)thiourea]	3.69 µM	95.7%	exceeded the efficacy of SHetA2	–	–	–
CCC1(CC)CC(C)(C)Oc2ccc(NC(=O)Nc3ccc([N+](=O)[O-])cc3)cc21 [Compound 7c, 1-(4,4-Diethyl-2,2-dimethylchroman-6-yl)-3-(4-nitrophenyl)urea]	2.05 µM	93.6%	exceeded the efficacy of SHetA2	–	–	IC50 compared with SHetA2 (A2780): exceeded
CCC1(CC)CC(CC)(CC)c2cc(NC(=S)Nc3ccc([N+](=O)[O-])cc3)ccc2O1 [Compound 8a, 1-(4-Nitrophenyl)-3-(2,2,4,4-tetraethylchroman-6-yl)thiourea]	4.6 µM	94%	exceeded the efficacy of SHetA2	–	–	–
CCC1(CC)CC(CC)(CC)c2cc(NC(=O)Nc3ccc([N+](=O)[O-])cc3)ccc2O1 [Compound 8b, 1-(4-Nitrophenyl)-3-(2,2,4,4-tetraethylchroman-6-yl)urea]	2.09 µM	91.4%	exceeded the efficacy of SHetA2	–	–	IC50 compared with SHetA2 (A2780): exceeded
CC1(C)CC[N+](C)(C)c2ccc(NC(=O)Nc3ccc([N+](=O)[O-])cc3)cc21 [Compound 10, 1,1,4,4-Tetramethyl-6-(3-(4-nitrophenyl)ureido)-1,2,3,4-tetrahydroquinolin-1-ium Iodide]	–	–	–	–	–	IC50 [3]: 6.6 µM; Emax [4]: 22%
CN1c2ccc(NC(=S)Nc3ccc(C(F)(F)F)cc3)cc2C(C)(C)C(=O)C1(C)C [Compound 11d]	–	–	–	–	–	IC50 [5]: 3.9 µM; Efficacy [6]: 90.8 (±2.0) %
CN1c2ccc(NC(=O)Nc3ccc(N)cc3)cc2C(C)(C)C(=O)C1(C)C [Compound 11g, 1-(4-Aminophenyl)-3-(1,2,2,4,4-pentamethyl-3-oxo-1,2,3,4-tetrahydroquinolin-6-yl)urea]	–	–	–	–	–	IC50 [3]: 7.7 µM; Emax [4]: 24%
CN1c2ccc(NC(=S)Nc3ccc([N+](=O)[O-])cc3)cc2C(C)(C)C(O)C1(C)C (centres unmarked) [Compound 13b]	–	–	–	–	–	IC50 [5]: 10 µM; Efficacy [6]: 25 (±4) %
CC1(C)CC(C)(C)c2cc(NC(=O)Nc3ccc(C(F)(F)F)cc3)ccc2S1 [Compound 14a, 1-(2,2,4,4-Tetramethylthiochroman-6-yl)-3-(4-(trifluoromethyl)phenyl)urea]	–	–	exceeded that of SHetA2 in efficacy	3.79 ± 0.05 µM	93.3 ± 0.1%	–
CC1(C)CC(C)(C)c2cc(NC(=O)Nc3ccc(OC(F)(F)F)cc3)ccc2S1 [Compound 14b, 1-(2,2,4,4-Tetramethylthiochroman-6-yl)-3-(4-(trifluoromethoxy)phenyl)urea]	–	–	exceeded that of SHetA2 in efficacy	1.86 ± 0.09 µM	95.6 ± 0.4%	–
CC1(C)CC(C)(C)c2cc(NC(=O)Nc3ccc(C#N)cc3)ccc2S1 [Compound 14c, 1-(4-Cyanophenyl)-3-(2,2,4,4-tetramethylthiochroman-6-yl)urea]	–	–	exceeded that of SHetA2 in efficacy	3.93 ± 0.03 µM	93.3 ± 0.1%	–
CC1(C)CC(C)(C)c2cc(NC(=S)Nc3ccc(Cl)cc3)ccc2S1 [Compound 14d, 1-(4-Chlorophenyl)-3-(2,2,4,4-tetramethylthiochroman-6-yl)thiourea]	–	–	exceeded that of SHetA2 in efficacy	3.17 ± 0.25 µM	91.9 ± 0.5%	–
CC1(C)CC(C)(C)c2cc(NC(=S)Nc3ccc(C(F)(F)F)cc3)ccc2S1 [Compound 14e, 1-(2,2,4,4-Tetramethylthiochroman-6-yl)-3-(4-(trifluoromethyl)phenyl)thiourea]	–	–	exceeded that of SHetA2 in efficacy	2.86 ± 0.29 µM	95.9 ± 0.6%	–
CC1(C)CC(C)(C)c2cc(NC(=S)Nc3ccc(OC(F)(F)F)cc3)ccc2S1 [Compound 14f, 1-(2,2,4,4-Tetramethylthiochroman-6-yl)-3-(4-(trifluoromethoxy)phenyl)thiourea]	–	–	exceeded that of SHetA2 in efficacy	3.51 ± 0.07 µM	95.3 ± 0.4%	–
CC1(C)CC(C)(C)c2cc(NC(=S)Nc3ccc(C(N)=O)cc3)ccc2S1 [Compound 14g, 4-(3-(2,2,4,4-Tetramethylthiochroman-6-yl)thioureido)benzamide]	–	–	–	3.53 ± 0.12 µM	64.2 ± 1.8%	–
COc1ccc(NC(=S)Nc2ccc3c(c2)C(C)(C)CC(C)(C)S3)cc1 [Compound 14h, 1-(4-Methoxyphenyl)-3-(2,2,4,4-tetramethylthiochroman-6-yl)thiourea]	–	–	–	2.78 ± 0.47 µM	59.8 ± 1.2%	–
COc1cccc(NC(=S)Nc2ccc3c(c2)C(C)(C)CC(C)(C)S3)c1 [Compound 14i, 1-(3-Methoxyphenyl)-3-(2,2,4,4-tetramethylthiochroman-6-yl)thiourea]	–	–	–	3.04 ± 0.52 µM	38.8 ± 0.04%	–
CC1(C)CC(C)(C)c2cc(NC(=S)NCc3ccccc3)ccc2S1 [Compound 14j, 1-Benzyl-3-(2,2,4,4-tetramethylthiochroman-6-yl)thiourea]	–	–	exceeded that of SHetA2 in efficacy	3.03 ± 0.47 µM	85.6 ± 0.6%	–
CC1(C)CC(C)(C)c2cc(NC(=S)NCCc3ccccc3)ccc2S1 [Compound 14k, 1-Phenethyl-3-(2,2,4,4-tetramethylthiochroman-6-yl)thiourea]	–	–	exceeded that of SHetA2 in efficacy	3.19 ± 0.47 µM	88.2 ± 0.3%	–
CC1(C)CC(C)(C)c2cc(NC(=S)NCc3ccc(Cl)cc3)ccc2S1 [Compound 14l, 1-(4-Chlorobenzyl)-3-(2,2,4,4-tetramethylthiochroman-6-yl)thiourea]	–	–	exceeded that of SHetA2 in efficacy	2.98 ± 0.44 µM	89.4 ± 2.8%	–
CC1(C)CC(C)(C)c2cc(NC(=S)NCc3ccc([N+](=O)[O-])cc3)ccc2S1 [Compound 14m, 1-(4-Nitrobenzyl)-3-(2,2,4,4-tetramethylthiochroman-6-yl)thiourea]	–	–	exceeded that of SHetA2 in efficacy	4.7 ± 0.11 µM	94.5 ± 0.6%	–
CC1(C)CC(C)(C)c2cc(NC(=S)NCc3ccc(C(F)(F)F)cc3)ccc2S1 [Compound 14n, 1-(2,2,4,4-Tetramethylthiochroman-6-yl)-3-(4-(trifluoromethyl)benzyl)thiourea]	–	–	exceeded that of SHetA2 in efficacy	4.82 ± 0.41 µM	95.3 ± 0.3%	–
COc1ccc(CNC(=S)Nc2ccc3c(c2)C(C)(C)CC(C)(C)S3)cc1 [Compound 14o, 1-(4-Methoxybenzyl)-3-(2,2,4,4-tetramethylthiochroman-6-yl)thiourea]	–	–	exceeded that of SHetA2 in efficacy	3.26 ± 0.43 µM	89.6 ± 0.9%	–
